From ChEMBL document CHEMBL1153656, “Synthesis of homochiral potassium channel openers: role of the benzopyranyl 3-hydroxyl group in cromakalim and pyridine N-oxides in determining the biological activities of enantiomers” (Bioorg Med Chem Lett, 1992)
pIC50: −log10 of the molar value.

Species on record: Rattus norvegicus
Assay: The concentration of test substance producing half maximal reduction of the contraction evoked by 20 mM KCI in rat hepatic portal veins.
Assay type: functional
Conditions: not given

Structure (SMILES)	pIC50
CC1(C)Oc2ccc(C#N)cc2[C@H](N2CCCC2=O)[C@H]1O (single isomer, unassigned) [(-)-CROMAKALIM]	7.13
CC1(C)Oc2ccc(C#N)cc2[C@H](N2CCCC2=O)[C@H]1O [(-)-CROMAKALIM]	5.18

Same assay, conditions: Rattus norvegicus

Structure (SMILES)	pIC50
CC1(C)Oc2ccc(C#N)cc2[C@H](c2cccc[n+]2[O-])[C@H]1O	5.92
CC1(C)C[C@H](N2CCCC2=O)c2cc(C#N)ccc2O1	5.94
CC1(C)C[C@H](c2cccc[n+]2[O-])c2cc(C#N)ccc2O1	6.68
CC1(C)Oc2ccc(C#N)cc2[C@@H](c2cccc[n+]2[O-])[C@@H]1O	7.00
CC1(C)C[C@@H](c2cccc[n+]2[O-])c2cc(C#N)ccc2O1	7.12
CC1(C)C[C@@H](N2CCCC2=O)c2cc(C#N)ccc2O1	6.28
